The subject of series [1] is atherosclerotic lesions containing MMP2 and MMP9. Nature of the series: In vivo binding to atherosclerotic plaques (ex vivo storage phosphor imaging of aortic arch, MMP2/9 immunohistochemistry). The arrangement: species or system ApoE-/- mice. The settings on record: 40 MBq i.v. Here is the method: To investigate selective binding of [^123I]10c to MMP2/9 found in atherosclerotic lesions, we examined the distribution of the [^123I]10c in 8–10 week old female ApoE-/- mice (n = 5, Charles River) that were fed a high fat Western diet (15% fat, 0.25% cholesterol; Arie Blok Diervoeding, Netherlands) for 4 weeks. These animals subsequently developed atherosclerotic plaques. 40 MBq of [^123I]10c were administered by intravenous injection in the tail vein and allowed to circulate for […]. Animals were euthanized by bleeding via PBS infusion. The aortic arch was excised and 10 μm serial sections were made. Aortic arch sections were placed on a phosphor imaging plate (Fuji) and the amount of radioactivity was measured using a storage phosphor imaging apparatus (Typhoon Trio; GE Healthcare Life Sciences). Sections were then stained with hematoxylin/eosin staining, or used for MMP2 and MMP9 detection. Prior to incubation with monoclonal goat-anti-mouse MMP2 (R&D Systems) and rabbit-anti-mouse MMP9 (Abcam), the sections were heated to improve antigen retrieval. Rabbit-anti-goat secondary antibodies (DAKO) were utilized on the MMP2 sections. Thereafter, all sections were probed with the PowerVision anti-rabbit polymer, conjugated to horseradish peroxidase (Immunologic), to reveal positive primary antibody binding by means of chromogen conversion of 3,3’-diaminobenzidine (DAB), followed by nuclear counterstaining with hematoxylin. Histological sections were imaged with a bright-field microscope. […]
To validate the efficacy of [^123I]10c as an appropriate tracer for detection of atherosclerotic plaques, we examined the in vivo uptake of this ligand in ApoE-/- mice that were fed a high-fat diet. […] 40 MBq of [^123I]10c was administered intravenously and allowed to circulate for 3 hours, after which the animals were euthanized and the aortic arch was excised for measuring radioactivity by storage phosphor imaging.
Fig 6 Binding of [^123I]10c to atherosclerotic lesions containing MMP2 and MMP9. […] The region with highest apparent radioactivity has been outlined. […]

Series [2] in a line: In vivo biodistribution after intravenous injection in healthy mice. The settings on record: healthy C57BL/6 mice. Here is the method:
All experiments were approved by the institutional committee for animal experiments at the Academic Medical Center. C57BL/6 female mice (14–16 week) were purchased from Harlan and housed in the animal care facility at the Academic Medical Center. Animals were anesthetized using 126 mg ketamine, 100 μg dexdomitor, 500 μg atropine, 7.5 mL NaCl 0.9% of which 0.015 mL/g body weight was administered by intraperitoneal injection. In order to investigate the in vivo biodistribution of MMP ligand [^123I]10c, 4 MBq was administered intravenously in the tail vein and allowed to circulate for either 5, 15, 30, 60 minutes or 2, 3, 4, 6 and 24 hours (n = 3–4 animals for each time point). At the end of each circulation time, animals were sacrificed by bleeding through phosphate buffered saline solution (PBS) perfusion. After the animals were sacrificed, whole blood was collected by cardiac puncture, and selected organs were excised (heart, lungs, liver and kidneys). The organs were weighed and radioactivity was measured using a scintillation counter (TRT-CARB 2000CA, Perkin Elmer 1987). The measured radioactivity was expressed as the percentage of the injected dose per gram of tissue per gram of body weight (% ID/g/g).
The biodistribution of [^123I]10c was investigated following intravenous infusion of 4 MBq in healthy C57BL/6 mice. Following the bolus injection, the compound was allowed to circulate for 5, 15, 30, 60 minutes, 2, 3, 4, 6 and 24 hours. […] In the blood, stabilization of the compound was reached after at least 1 hour of circulation.
Fig 5 Biodistribution of [^123I]10c following intravenous infusion in healthy mice (n = 3–4 /group). Injected dose (ID) of radioactivity was measured in fat (A), muscle (B), liver (C), kidney (D), spleen (E), blood (F), heart (G) and lung (H) at varying time-points after injection. Values shown are mean ± SEM.

These results are taken from PMC5708805, “Novel molecular imaging ligands targeting matrix metalloproteinases 2 and 9 for imaging of unstable atherosclerotic plaques” (PLoS ONE, 2017).

Turning to `O=C(O)CN(CC(=O)NO)S(=O)(=O)c1ccc(Oc2ccc([123I])cc2)cc1` [[^123I]10c, ([4-(4-[^123I]Iodophenoxy)benzenesulphonyl]hydroxycarbamoylmethylamino) acetic acid], the “tracer uptake in diseased regions of the vessel wall” value in series [1] (ApoE-/- mice on high-fat diet, storage phosphor imaging) is “relatively high”. Besides, in series [1] (ApoE-/- mice on high-fat diet, storage phosphor imaging of excised aortic arch), the “uptake in atherosclerotic lesions of the aortic arch” value is given as “detectable”. In series [1] (ApoE-/- mice, consecutive aortic arch sections), the “relation of tracer uptake to MMP2 and MMP9 immunohistochemical staining in lesions” value is recorded as “co-localizing”. Besides, the “circulation time until stabilization of the compound in blood” value in series [2] (4 MBq i.v. bolus) was “at least 1 hour”. For the same molecule, the “tissues with highest radioactivity (biodistribution)” value in series [2] (4 MBq i.v., 5 min to 24 h) is “highest in the liver and blood”. The “accumulation in fat (biodistribution)” value in series [2] (4 MBq i.v., 5 min to 24 h, relative to other tissues) is “lowest”.
